{"source": "patent US20250059188A1", "about": "“ARYLSULPHONAMIDE COMPOUNDS” (Anaxis Pharma Pty Ltd, priority 2021, published 2025)", "tested_on": "Immortalised Mouse Dermal Fibroblasts (MDFs)", "test": "Inhibition of TSI induced necroptosis in mouse dermal fibroblasts (CellTitre-Glo)", "details": "Mus musculus, Fibroblast, 3 h, MDF cells, TSI cocktail (TNF, Smac mimetic, IDN-6556), read-out: Inhibition of TSI-induced necroptosis (IC50 cell-based assay) in MDF", "method_in_brief": "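Immortalised MDFs (2200 cells/well, DMEM + 7.4% FBS) pretreated 30 min with compound (36 μM top, 1:3, 10 points, 0.3% DMSO), then 3 h with TNF 100 ng/ml, Smac mimetic 500 nM and IDN-6556 10 μM at 37 °C. Viability by CellTiter-Glo luminescence; IC50 from 4-parameter logistic fit.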"}
{"smiles": "C[C@H](Oc1cc(-c2nn(C)c3c(-c4cnn(C5C[C@@H]6CN(C)C[C@@H]6C5)c4)cnc(N)c23)ccc1NS(=O)(=O)C(F)F)c1ccc(F)cc1", "note": "(stereo partly drawn) [Compound 164, N-(4-(4-amino-1-methyl-7-(1-((3aR,6aS)-2-methyloctahydrocyclopenta[c]pyrrol-5-yl)-1H-pyrazol-4-yl)-1H-pyrazolo[4,3-c]pyridin-3-yl)-2-((S)-1-(4-fluorophenyl)ethoxy)phenyl)-1,1-difluoromethanesulfonamide]", "values": [{"measurement": "IC50", "result": "< 100", "unit": "nM"}]}
{"smiles": "C[C@H](Oc1cc(-c2nn(C)c3c(-c4cnn(C5CCN(C)C(C(F)(F)F)C5)c4)cnc(N)c23)ccc1NS(=O)(=O)C(F)F)c1ccc(F)cc1", "note": "(stereo partly drawn) [Compound 148, N-(4-(4-amino-1-methyl-7-(1-(1-methyl-2-(trifluoromethyl)piperidin-4-yl)-1H-pyrazol-4-yl)-1H-pyrazolo[4,3-c]pyridin-3-yl)-2-((S)-1-(4-fluorophenyl)ethoxy)phenyl)-1,1-difluoromethanesulfonamide]", "values": [{"measurement": "IC50", "result": "100 to 1000", "unit": "nM"}]}
{"smiles": "C[C@H](Oc1cc(-c2nn(C)c3c(-c4cnn(C5CC6CCC(C5)N6CC(F)(F)F)c4)cnc(N)c23)ccc1NS(=O)(=O)C(F)F)c1ccc(F)cc1", "note": "(stereo partly drawn) [Compound 153, N-(4-(4-amino-1-methyl-7-(1-(8-(2,2,2-trifluoroethyl)-8-azabicyclo[3.2.1]octan-3-yl)-1H-pyrazol-4-yl)-1H-pyrazolo[4,3-c]pyridin-3-yl)-2-((S)-1-(4-fluorophenyl)ethoxy)phenyl)-1,1-difluoromethanesulfonamide]", "values": [{"measurement": "IC50", "result": "100 to 1000", "unit": "nM"}]}
{"smiles": "C[C@H](Oc1cc(-c2nn(C)c3c(-c4cnn(C5CCN(C)C(C)(C)C5)c4)cnc(N)c23)ccc1NS(=O)(=O)C(F)F)c1ccc(Cl)cc1", "note": "(stereo partly drawn) [Compound 159, N-(4-(4-amino-1-methyl-7-(1-(1,2,2-trimethylpiperidin-4-yl)-1H-pyrazol-4-yl)-1H-pyrazolo[4,3-c]pyridin-3-yl)-2-((S)-1-(4-chlorophenyl)ethoxy)phenyl)-1,1-difluoromethanesulfonamide]", "values": [{"measurement": "IC50", "result": "< 100", "unit": "nM"}]}
{"smiles": "C[C@H](Oc1cc(-c2nn(C)c3c(-c4cnn(C5CCN(CC(F)(F)F)C(C)(C)C5)c4)cnc(N)c23)ccc1NS(=O)(=O)C(F)F)c1ccc(F)cc1", "note": "(stereo partly drawn) [Compound 167, N-(4-(4-amino-7-(1-(2,2-dimethyl-1-(2,2,2-trifluoroethyl)piperidin-4-yl)-1H-pyrazol-4-yl)-1-methyl-1H-pyrazolo[4,3-c]pyridin-3-yl)-2-((S)-1-(4-fluorophenyl)ethoxy)phenyl)-1,1-difluoromethanesulfonamide]", "values": [{"measurement": "IC50", "result": "< 100", "unit": "nM"}]}
{"smiles": "CC(n1cc(-c2cnc(N)c3c(-c4ccc(NS(=O)(=O)C(F)F)c(O[C@@H](C)c5ccc(F)cc5)c4)nn(C)c23)cn1)C(F)(F)F", "note": "(stereo partly drawn) [Compound 142, N-(4-(4-amino-1-methyl-7-(1-(1,1,1-trifluoropropan-2-yl)-1H-pyrazol-4-yl)-1H-pyrazolo[4,3-c]pyridin-3-yl)-2-((S)-1-(4-fluorophenyl)ethoxy)phenyl)-1,1-difluoromethanesulfonamide]", "values": [{"measurement": "IC50", "result": "1000 to 10000", "unit": "nM"}]}
{"smiles": "CC1CN(C)CC(C)C1n1cc(-c2cnc(N)c3c(-c4ccc(NS(=O)(=O)C(F)F)c(O[C@@H](C)c5ccc(F)cc5)c4)nn(C)c23)cn1", "note": "(stereo partly drawn) [Compound 172, N-(4-{4-amino-1-methyl-7-[1-(1,3,5-trimethylpiperidin-4-yl)-1H-pyrazol-4-yl]-1H-pyrazolo[4,3-c]pyridin-3-yl}-2-[(1S)-1-(4-fluorophenyl)ethoxy]phenyl)-1,1-difluoromethanesulfonamide]", "values": [{"measurement": "IC50", "result": "< 100", "unit": "nM"}]}
{"smiles": "C[C@H](Oc1cc(-c2nn(C)c3c(-c4cnn(C5(CC#N)COC5)c4)cnc(N)c23)ccc1NS(=O)(=O)C(F)F)c1ccc(F)cc1", "note": "[Compound 98, (S)-N-(4-(4-amino-7-(1-(3-(cyanomethyl)oxetan-3-yl)-1H-pyrazol-4-yl)-1-methyl-1H-pyrazolo[4,3-c]pyridin-3-yl)-2-(1-(4-fluorophenyl)ethoxy)phenyl)-1,1-difluoromethanesulfonamide]", "values": [{"measurement": "IC50", "result": "1000 to 10000", "unit": "nM"}]}
{"smiles": "CC1C(n2cc(-c3cnc(N)c4c(-c5ccc(NS(=O)(=O)C(F)F)c(O[C@@H](C)c6ccc(F)cc6)c5)nn(C)c34)cn2)CN1C", "note": "(stereo partly drawn) [Compound 147, N-(4-(4-amino-7-(1-(1,2-dimethylazetidin-3-yl)-1H-pyrazol-4-yl)-1-methyl-1H-pyrazolo[4,3-c]pyridin-3-yl)-2-((S)-1-(4-fluorophenyl)ethoxy)phenyl)-1,1-difluoromethanesulfonamide]", "values": [{"measurement": "IC50", "result": "100 to 1000", "unit": "nM"}]}
{"smiles": "Cc1c(-c2cnc(N)c3c(-c4ccc(NS(=O)(=O)C(F)F)c(O[C@@H](C)c5ccc(F)cc5)c4)nn(C)c23)cnn1C1CCN(C)C(C)(C)C1", "note": "(stereo partly drawn) [Compound 157, N-(4-(4-amino-1-methyl-7-(5-methyl-1-(1,2,2-trimethylpiperidin-4-yl)-1H-pyrazol-4-yl)-1H-pyrazolo[4,3-c]pyridin-3-yl)-2-((S)-1-(4-fluorophenyl)ethoxy)phenyl)-1,1-difluoromethanesulfonamide]", "values": [{"measurement": "IC50", "result": "1000 to 10000", "unit": "nM"}]}
{"smiles": "C[C@H](Oc1cc(-c2nn(C)c3c(-c4cnn(C5C[C@H]6CNC[C@H]6C5)c4)cnc(N)c23)ccc1NS(=O)(=O)C(F)F)c1ccc(F)cc1", "note": "(stereo partly drawn) [Compound 163, N-(4-(4-amino-1-methyl-7-(1-((3aR,6aS)-octahydrocyclopenta[c]pyrrol-5-yl)-1H-pyrazol-4-yl)-1H-pyrazolo[4,3-c]pyridin-3-yl)-2-((S)-1-(4-fluorophenyl)ethoxy)phenyl)-1,1-difluoromethanesulfonamide]", "values": [{"measurement": "IC50", "result": "1000 to 10000", "unit": "nM"}]}
{"smiles": "C[C@H](Oc1cc(-c2nn(C)c3c(-c4cnn(C5CCN(C)C6(CC6)C5)c4)cnc(N)c23)ccc1NS(=O)(=O)C(F)F)c1ccc(F)cc1", "note": "(stereo partly drawn) [Compound 145, N-(4-(4-amino-1-methyl-7-(1-(4-methyl-4-azaspiro[2.5]octan-7-yl)-1H-pyrazol-4-yl)-1H-pyrazolo[4,3-c]pyridin-3-yl)-2-((S)-1-(4-fluorophenyl)ethoxy)phenyl)-1,1-difluoromethanesulfonamide]", "values": [{"measurement": "IC50", "result": "< 100", "unit": "nM"}]}
{"smiles": "C[C@H](Oc1cc(-c2nn(C)c3c(C#CC4CCN(C)CC4)cnc(N)c23)ccc1NS(=O)(=O)C(F)F)c1ccc(F)cc1", "note": "[Compound 80, (S)—N-(4-(4-amino-1-methyl-7-((1-methylpiperidin-4-yl)ethynyl)-1H-pyrazolo[4,3-c]pyridin-3-yl)-2-(1-(4-fluorophenyl)ethoxy)phenyl)-1,1-difluoromethanesulfonamide]", "values": [{"measurement": "IC50", "result": "100 to 1000", "unit": "nM"}]}
